Results published in patent US9527879B2, “Aster glehni extracts, fractions or compounds isolated therefrom for the treatment or prevention of hyperuricemia or gout” (KOREA INSTITUTE OF SCIENCE AND TECHNOLOGY, priority 2014, dated 2016).

These compounds were tested against xanthine oxidase (UniProt P80457) (assay: Inhibition of production of uric acid by xanthine/xanthine oxidase). Conditions: xanthine oxidase 0.024 units/mL, 100 μM xanthine, pH 7.5, 25° C.; mean ± SEM of triplicate experiments.
Assay type: biochemical
Procedure: Uric acid is produced from xanthine oxidation by xanthine oxidase.
Specifically, the sample and xanthine oxidase (0.024 units/mL) were mixed in 100 mM phosphate buffer (pH 7.5) and preincubated at 25° C. for 10 min. The reaction was initiated by the addition of 100 μM xanthine and incubation was further carried out at 25° C. for 30 min. […] The inhibition of uric acid production A (%) was calculated according to Equation 1. […] [Equation 1]

IC50 [µM]	Compound
93 ± 1.7	C[C@H](/C=C/[C@@]1(O)[C@H](C)CC(=O)CC1(C)C)OC1OC(COC(=O)/C=C/c2ccc(O)c(O)c2)C(O)C(O)C1O (stereo partly shown) [Compound 1, 6′-O-caffeoylampelopsisionoside]
73.2 ± 5.1	CC(=O)/C=C/C1=C(C)C(O)C(O[C@@H]2OC(COC(=O)/C=C/c3ccc(O)c(O)c3)[C@@H](O)C(O)C2O)CC1(C)C (stereo partly shown) [Compound 3, 6′-O-Caffeoylsonchuinoside C]
71.1 ± 3.9	COc1cc(CCCO)cc(OC)c1O[C@@H]1OC(COC(=O)/C=C/c2ccc(O)c(O)c2)[C@@H](O)C(O)C1O (stereo partly shown) [Compound 4, 6′-O-Caffeoyldihydrosyringin]
80 ± 4.9	C/C(=C\CO)CO[C@@H]1OC(COC(=O)/C=C/c2ccc(O)c(O)c2)[C@@H](O)C(O)C1O (stereo partly shown) [Compound 5]
